Where a name gives a salt, the structure may show the parent alone.
Tests used:
Assay type in all cases: in vivo
[1] = test system: mice; test: Dish test (mice remaining in the dish for more than 3 minutes); details: Mus musculus, ip, 0.05 h; intraperitoneal injection in mice; 50% of the mice remain in the dish for more than 3 minutes; read-out: ED50 D (dish test)
Experimental: (§1) Tranquilizing effects of the compounds of this invention are shown by the following tests in mice:
Dish test: Mice in Petri dishes (10 cm. diameter, 5 cm. high, partially embedded in wood shavings), climb out in a very short time, when not treated. Mice remaining in the dish for more than 3 minutes indicates tranquilization. ED50 equals the dose of test compound at which 50% of the mice remain in the dish.

[2] = test system: mice; test: Chimney test (mice fail to back up and out of a vertical glass cylinder within 30 seconds); details: Mus musculus, ip; intraperitoneal injection in mice; 50% of the mice failed to back out within 30 seconds; read-out: ED50 Ch (chimney test)
Description: as §1
Chimney test: [Med. Exp. 4, 145 (1961)]: The test determines the ability of mice to back up and out of a vertical glass cylinder within 30 seconds. At the effective dosage, 50% of the mice failed doing it.

[3] = test system: mice; test: Pedestal test (mice stay on the pedestal for more than 1 minute); details: Mus musculus, ip, 1 min, intraperitoneal injection in mice, read-out: ED50 P (pedestal test)
Experimental: as §1
Pedestal test: The untreated mouse leaves a standard pedestal in less than a minute to climb back to the floor of the standard mouse box. Tranquilized mice will stay on the pedestal for more than 1 minute.

[4] = test system: mice; test: Nicotine antagonism test (nicotine salicylate 2 mg./kg.); details: Mus musculus, ip, intraperitoneal injection in mice, nicotine salicylate 2 mg./kg. thirty minutes later
Experimental: as §1
Nicotine antagonism test: Mice in a group of 6 are injected with the test compound. Thirty minutes later the mice including control (untreated) mice are injected with nicotine salicylate (2 mg./kg.). The control mice show overstimulation, i.e., (1) running convulsions followed by (2) tonic extensor fits; followed by (3) death.
Ni = nicotine antagonism (2) and (3) tests.

[5] = (2) tonic extensor fits, read-out: ED50 Ni(2) (nicotine antagonism (2) test)
[6] = (3) death, read-out: ED50 Ni(3) (nicotine antagonism (3) test)

Row | Structure (SMILES) | ED50 [1] | ED50 [2] | ED50 [3] | ED50 [4, 5] | ED50 [4, 6]
1 | Cc1n[n+](C)c2n1-c1ccc(Cl)cc1C(c1ccccc1)=NC2 [8-Chloro-1,3-dimethyl-6-phenyl-4H-s-triazolo[4,3-a][1,4]benzodiazepinium chloride sesquihydrate] | 79 mg/kg | 36 mg/kg | 79 mg/kg | 22 mg/kg | 22 mg/kg
2 | C[n+]1nc([O-])n2c1CN=C(c1ccccc1Cl)c1cc(Cl)ccc1-2 [8-Chloro-6-(o-chlorophenyl)-1-hydroxy-3-methyl-4H-s-triazolo[4,3-a][1,4]benzodiazepinium hydroxide inner salt] | 1.2 mg/kg | 1.6 mg/kg | 3.2 mg/kg | 0.3 mg/kg | 0.44 mg/kg

Source: patent publication US4082761A, “Triazolo[4,3-a][1,4]benzodiazepinium quaternary salts” (The Upjohn Company, priority 1973, dated 1978)
